Results taken from PubChem BioAssay (NCI).
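Tested at 5 concentrations; 48 h exposure; 96-well plates; endpoints linearly interpolated, else capped at highest concentration. GI50 = concentration required for 50% inhibition of growth. Definition used: TGI = concentration required for complete inhibition of growth.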

How the values were obtained:
Assay in all cases: growth of human tumour cells (NCI), 48 h
[1] = tested on: SNB-19 CNS
[2] = tested on: SF-268 CNS
[3] = tested on: HT29 colon
[4] = tested on: SK-MEL-5 melanoma
[5] = tested on: RXF 393 renal
[6] = tested on: OVCAR-4 ovarian
[7] = tested on: HCC-2998 colon
[8] = tested on: OVCAR-5 ovarian
[9] = tested on: SF-539 CNS
[10] = tested on: KM12 colon
[11] = tested on: TK-10 renal

Row | Structure (SMILES) | TGI [1] | TGI [2] | TGI [3] | TGI [4] | TGI [5] | TGI [6] | TGI [7] | TGI [8] | TGI [9] | TGI [10] | TGI [11] | GI50 [1] | GI50 [2] | GI50 [4] | GI50 [11] | GI50 [7] | GI50 [10]
1 | O=S1(=O)c2ccccc2N2CCCc3cc(Cl)cc1c32 | > 100 µM | > 100 µM | > 100 µM | > 100 µM | 51.3 µM | > 100 µM | > 100 µM | > 100 µM | > 100 µM | > 100 µM | – | – | – | – | – | – | –
2 | Cc1cc2ccccc2c[n+]1CC(=O)CC([O-])(C(F)(F)F)C(F)(F)F | > 100 µM | > 100 µM | > 100 µM | > 100 µM | > 100 µM | > 100 µM | > 100 µM | > 100 µM | > 100 µM | – | – | – | – | – | – | – | –
3 | C=C[C@H]1CN2CC[C@H]1C[C@@H]2[C@@H](O)c1ccnc2ccccc12 | > 100 µM | > 100 µM | > 100 µM | > 100 µM | > 100 µM | > 100 µM | – | > 100 µM | > 100 µM | > 100 µM | > 100 µM | – | – | – | – | – | –
4 | CO[P@]1(=O)O[C@@H](c2ccccc2)[C@H](O)[C@]1(O)c1ccccc1 | > 100 µM | > 100 µM | > 100 µM | > 100 µM | > 100 µM | > 100 µM | – | > 100 µM | > 100 µM | > 100 µM | > 100 µM | – | – | – | – | – | –
5 | CCCN(CCC)c1c([N+](=O)[O-])cc(S(N)(=O)=O)cc1[N+](=O)[O-] | 41.3 µM | 32.8 µM | 34 µM | 33.5 µM | – | 26.9 µM | 33.2 µM | 37.9 µM | 35.9 µM | 34.3 µM | – | – | – | – | – | – | –
6 | CCCCCCCCOCC1S(=O)(=O)OCCOS1(=O)=O | > 100 µM | > 100 µM | > 100 µM | > 100 µM | > 100 µM | > 100 µM | > 100 µM | > 100 µM | > 100 µM | – | > 100 µM | – | – | – | – | – | –
7 | O=c1[nH]cnc2c1ncn2[C@H]1CO[C@@H](CO)[C@@H]1O | – | > 100 µM | > 100 µM | > 100 µM | > 100 µM | > 100 µM | > 100 µM | > 100 µM | > 100 µM | > 100 µM | > 100 µM | – | – | – | – | – | –
8 | Brc1ccc2c(c1)C1=C(CO2)Cc2ccccc2O1 | – | 41 µM | 62.8 µM | 28.2 µM | – | 33.6 µM | 32.3 µM | 34.8 µM | 36.3 µM | 37.2 µM | 37.2 µM | – | – | – | – | – | –
9 | O=C(c1ccco1)N(C(=S)N1CCN(c2ccccc2)CC1)c1ccccc1 | > 100 µM | > 100 µM | > 100 µM | > 100 µM | > 100 µM | > 100 µM | – | > 100 µM | > 100 µM | > 100 µM | > 100 µM | – | – | – | – | – | –
10 | CN(C)c1ccc(/C=N/NC2=N/C(=C\c3ccco3)C(=O)N2)cc1 | > 100 µM | > 100 µM | > 100 µM | > 100 µM | > 100 µM | – | – | > 100 µM | > 100 µM | > 100 µM | > 100 µM | – | – | – | – | – | –
11 | O=C(O)C(Cc1cccs1)C(=O)O | > 100 µM | > 100 µM | > 100 µM | > 100 µM | > 100 µM | > 100 µM | > 100 µM | > 100 µM | – | > 100 µM | > 100 µM | – | – | – | – | – | –
12 | Nc1nc(N)c2ncn(CC(CO)CC(c3ccccc3)P(=O)(O)O)c2n1 (stereo not drawn) | > 100 µM | > 100 µM | > 100 µM | > 100 µM | > 100 µM | – | > 100 µM | > 100 µM | > 100 µM | > 100 µM | > 100 µM | – | – | – | – | – | –
13 | COc1ccc(-c2cn3ccnc3c(-c3ccc4ncn(C5CCCCC5)c4c3)n2)cc1 | > 100 µM | > 100 µM | – | 3.2 µM | – | – | > 100 µM | – | – | > 100 µM | 68.9 µM | 0.836 µM | 2.38 µM | 0.698 µM | 2.99 µM | 2.92 µM | 1.35 µM
14 | O=C1NC(N2CCOCC2)=N/C1=C\c1ccccc1O | > 100 µM | > 100 µM | > 100 µM | > 100 µM | > 100 µM | > 100 µM | – | > 100 µM | > 100 µM | > 100 µM | > 100 µM | – | – | – | – | – | –
15 | CC(NCCS(=O)(=O)O)C(=O)O (stereo not drawn) | > 100 µM | > 100 µM | > 100 µM | > 100 µM | > 100 µM | > 100 µM | > 100 µM | > 100 µM | > 100 µM | > 100 µM | – | – | – | – | – | – | –
16 | O=C(CSC1=NCCN1)c1ccccc1 | > 100 µM | > 100 µM | > 100 µM | > 100 µM | > 100 µM | > 100 µM | – | > 100 µM | > 100 µM | > 100 µM | > 100 µM | – | – | – | – | – | –
17 | CCCc1ccc(N=Cc2cc(OC)c(OC)c(OC)c2)cc1 | > 100 µM | > 100 µM | > 100 µM | > 100 µM | > 100 µM | > 100 µM | – | > 100 µM | > 100 µM | > 100 µM | > 100 µM | – | – | – | – | – | –
18 | CC(=O)C(=C(I)I)c1ccccc1 | 37.2 µM | 52.6 µM | 35.2 µM | 28.5 µM | 46.4 µM | 31.3 µM | 72 µM | 45.7 µM | 38.9 µM | 41.4 µM | – | – | – | – | – | – | –
19 | Nc1cc(CO)cc(Nc2c3ccccc3nc3occc23)c1 | > 100 µM | 87.3 µM | 30.5 µM | 58.9 µM | – | 54.5 µM | > 100 µM | > 100 µM | 69.6 µM | > 100 µM | > 100 µM | – | – | – | – | – | –
20 | CN(C)Cc1cc(C(=O)O)cc(CN(C)C)c1O | > 100 µM | > 100 µM | > 100 µM | > 100 µM | > 100 µM | > 100 µM | > 100 µM | > 100 µM | – | > 100 µM | > 100 µM | – | – | – | – | – | –
21 | COc1nc2c(c(=O)n1C)N[C@@H]1[C@@H](O)[C@H](O)CO[C@@H]1N2 | > 100 µM | > 100 µM | > 100 µM | > 100 µM | > 100 µM | > 100 µM | – | > 100 µM | > 100 µM | > 100 µM | > 100 µM | – | – | – | – | – | –
